Structures can show the parent of a compound that is named as a salt.
Target: T1, p38 alpha (Homo sapiens, UniProt Q16539)
T1 construct: purchased Invitrogen PV3304
Test: P38 alpha enzyme inhibition assay (Alphascreen kinase activity assay)
Format: biochemical
Conditions: 100 pM p38 alpha, 2 hours preincubation at 25° C., 250 μM ATP, ATF-2 fusion protein; read-out: p38α inhibition
Description: P38 Alpha Enzyme Inhibition Assay
The inhibitory activity of compounds was determined using an Alphascreen® (Perkin Elmer) based kinase activity assay. Kinase reactions consisted of 25 mM HEPES pH 7.5, 10 mM MgCl2, 100 μM Na3VO4, 2 mM DTT, 0.05 mg/ml Tween 20, 100 pM p38 alpha (Invitrogen, PV3304), 1% DMSO and 0.3 μg/ml ATF-2 fusion protein (New England Biolabs, 9224). Compounds were incubated under these conditions for 2 hours, at 25° C., prior to the initiation of the kinase activity by the addition of the 250 μM ATP. Reaction volumes were 20 μL. After 1 hr at 25° C. reactions were stopped by the adding 10 μL of 25 mM HEPES pH 7.5 containing 62.5 mM EDTA, 0.05% Triton X-100, 10% BSA and 0.83 ng/uL anti-phospho-ATF2 antibody (Abcam, ab28812). Detection was performed by measuring luminescence following the addition of Alphascreen Donor beads (Perkin Elmer 6765300) and Protein A Alphascreen Acceptor beads (Perkin Elmer 6760137), both at a final concentration of 20 ug/ml. IC50 values were determined from concentration-response curves.

T1 sequence (Q16539 whole entry): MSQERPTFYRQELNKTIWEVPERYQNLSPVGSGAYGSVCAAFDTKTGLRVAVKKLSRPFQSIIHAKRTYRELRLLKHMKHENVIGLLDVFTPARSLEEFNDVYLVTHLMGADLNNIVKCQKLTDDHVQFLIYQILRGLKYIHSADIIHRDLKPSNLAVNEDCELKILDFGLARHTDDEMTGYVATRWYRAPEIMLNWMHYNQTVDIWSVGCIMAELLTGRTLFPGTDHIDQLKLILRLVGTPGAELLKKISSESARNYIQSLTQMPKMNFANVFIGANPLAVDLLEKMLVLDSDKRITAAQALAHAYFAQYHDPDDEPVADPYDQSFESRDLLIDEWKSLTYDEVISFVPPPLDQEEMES

Row | Compound | IC50
1 | CC(C)c1nnc2ccc(O[C@@H]3CC[C@H](NC(=O)Nc4cc(C(C)(C)C)nc(C(=O)NCCN(C)C)n4)c4ccccc43)cn12 [Example 17, 4-(tert-Butyl)-N-(2-(dimethylamino)ethyl)-6-(3-((1S,4R)-4-((3-isopropyl-[1,2,4]triazolo[4,3-a]pyridin-6-yl)oxy)-1,2,3,4-tetrahydronaphthalen-1-yl)ureido)pyrimidine-2-carboxamide] | 1 to 10 nM
2 | CN(C)CCNC(=O)c1nc(NC(=O)N[C@H]2CC[C@@H](Oc3ccc4nnc(C(C)(C)N5CCN(C)CC5)n4c3)c3ccccc32)cc(C(C)(C)C)n1 [Example 22, 4-(tert-Butyl)-N-(2-(dimethylamino)ethyl)-6-(3-((1S,4R)-4-((3-(2-(4-methylpiperazin-1-yl)propan-2-yl)-[1,2,4]triazolo[4,3-a]pyridin-6-yl)oxy)-1,2,3,4-tetrahydronaphthalen-1-yl)ureido)pyrimidine-2-carboxamide] | 1 to 10 nM
3 | CCc1nc(NC(=O)N[C@H]2CC[C@@H](Oc3ccc4nnc([C@]5(C)CCCN5C)n4c3)c3ccccc32)cc(C(C)(C)C)n1 [Example 41, 1-(6-(tert-Butyl)-2-ethylpyrimidin-4-yl)-3-((1S,4R)-4-((3-((S)-1,2-dimethylpyrrolidin-2-yl)-[1,2,4]triazolo[4,3-a]pyridin-6-yl)oxy)-1,2,3,4-tetrahydronaphthalen-1-yl)urea] | 1 to 10 nM
4 | CC(C)c1nc(NC(=O)N[C@H]2CC[C@@H](Oc3ccc4nnc([C@]5(C)CCCN5C)n4c3)c3ccccc32)cc(C(C)(C)C)n1 [Example 42, 1-(6-(tert-Butyl)-2-isopropylpyrimidin-4-yl)-3-((1S,4R)-4-((3-((S)-1,2-dimethylpyrrolidin-2-yl)-[1,2,4]triazolo[4,3-a]pyridin-6-yl)oxy)-1,2,3,4-tetrahydronaphthalen-1-yl)urea] | 1 to 10 nM
5 | CSc1nc(NC(=O)N[C@H]2CC[C@@H](Oc3ccc4nnc([C@@H]5CCCN5C)n4c3)c3ccccc32)cc(C(C)(C)C)n1 [Example 48] | 1 to 10 nM
6 | CC(C)(C)c1cc(NC(=O)N[C@H]2CC[C@@H](Oc3ccc4nnc(C(C)(C)C)n4c3)c3ccccc32)nc(COCCN2CCOCC2)n1 [Example 63, 1-(6-(tert-Butyl)-2-((2-morpholinoethoxy)methyl)pyrimidin-4-yl)-3-((1S,4R)-4-((3-(tert-butyl)-[1,2,4]triazolo[4,3-a]pyridin-6-yl)oxy)-1,2,3,4-tetrahydronaphthalen-1-yl)urea] | 1 to 10 nM
7 | CN(C)CCNC(=O)c1nc(NC(=O)N[C@H]2CC[C@@H](Oc3ccc4nnc(C(=O)N5CCOCC5)n4c3)c3ccccc32)cc(C(C)(C)C)n1 [Example 71, 4-(tert-butyl)-N-(2-(dimethylamino)ethyl)-6-(3-((1S,4R)-4-((3-(morpholine-4-carbonyl)-[1,2,4]triazolo[4,3-a]pyridin-6-yl)oxy)-1,2,3,4-tetrahydronaphthalen-1-yl)ureido)pyrimidine-2-carboxamide] | 1 to 10 nM
8 | CC(C)(C)c1cc(NC(=O)N[C@H]2CC[C@@H](Oc3ccc4nnc(C(C)(C)C)n4c3)c3ccccc32)nc(C(=O)N2CC(F)(F)C2)n1 [Example 79, 1-(6-(tert-butyl)-2-(3,3-difluoroazetidine-1-carbonyl)pyrimidin-4-yl)-3-((1S,4R)-4-((3-(tert-butyl)-[1,2,4]triazolo[4,3-a]pyridin-6-yl)oxy)-1,2,3,4-tetrahydronaphthalen-1-yl)urea] | 1 to 10 nM
9 | CC(C)Cc1nnc2ccc(O[C@@H]3CC[C@H](NC(=O)Nc4cc(C(C)(C)C)nc(C(=O)NCCN5CCOCC5)n4)c4ccccc43)cn12 [Example 90, 4-(tert-butyl)-6-(3-((1S,4R)-4-((3-isobutyl-[1,2,4]triazolo[4,3-a]pyridin-6-yl)oxy)-1,2,3,4-tetrahydronaphthalen-1-yl)ureido)-N-(2-morpholinoethyl)-pyrimidine-2-carboxamide] | 1 to 10 nM
10 | CC(C)(C)c1cc(NC(=O)N[C@H]2CC[C@@H](Oc3ccc4nnc(C5(C)COC5)n4c3)c3ccccc32)nc(C(=O)NCCN2CCOCC2)n1 [Example 98, 4-(tert-butyl)-6-(3-((1S,4R)-4-((3-(3-methyloxetan-3-yl)-[1,2,4]triazolo[4,3-a]pyridin-6-yl)oxy)-1,2,3,4-tetrahydronaphthalen-1-yl)ureido)-N-(2-morpholinoethyl)-pyrimidine-2-carboxamide] | 1 to 10 nM
11 | CO[C@@H](C)c1nnc2ccc(O[C@@H]3CC[C@H](NC(=O)Nc4cc(C(C)(C)C)nc(C(=O)NCCN5CCOCC5)n4)c4ccccc43)cn12 [Example 101, 4-(tert-butyl)-6-(3-((1S,4R)-4-((3-((S)-1-methoxyethyl)-[1,2,4]triazolo[4,3-a]pyridin-6-yl)oxy)-1,2,3,4-tetrahydronaphthalen-1-yl)ureido)-N-(2-morpholinoethyl)-pyrimidine-2-carboxamide] | 1 to 10 nM
12 | COCCN(C)CCNC(=O)c1nc(NC(=O)N[C@H]2CC[C@@H](Oc3ccc4nnc([C@H](C)OC)n4c3)c3ccccc32)cc(C(C)(C)C)n1 [Example 106, 4-(tert-butyl)-N-(2-((2-methoxyethyl)(methyl)amino)ethyl)-6-(3-((1S,4R)-4-((3-((S)-1-methoxyethyl)-[1,2,4]triazolo[4,3-a]pyridin-6-yl)oxy)-1,2,3,4-tetrahydronaphthalen-1-yl)ureido)pyrimidine-2-carboxamide] | 1 to 10 nM
13 | CN(C)CCN(C)C(=O)c1nc(NC(=O)N[C@H]2CC[C@@H](Oc3ccc4nnc(C(C)(C)C)n4c3)c3ccccc32)cc(C(C)(C)C)n1 [Example 115, 4-(tert-butyl)-6-(3-((1S,4R)-4-((3-(tert-butyl)-[1,2,4]triazolo[4,3-a]pyridin-6-yl)oxy)-1,2,3,4-tetrahydronaphthalen-1-yl)ureido)-N-(2-(dimethylamino)ethyl)-N-methylpyrimidine-2-carboxamide] | 1 to 10 nM
14 | CC(C)(C)c1cc(NC(=O)N[C@H]2CC[C@@H](Oc3ccc4nnc(C(C)(C)C)n4c3)c3ccccc32)nc(C(=O)N2CCN(CCO)CC2)n1 [Example 116, 1-(6-(tert-butyl)-2-(4-(2-hydroxyethyl)piperazine-1-carbonyl)pyrimidin-4-yl)-3-((1S,4R)-4-((3-(tert-butyl)-[1,2,4]triazolo[4,3-a]pyridin-6-yl)oxy)-1,2,3,4-tetrahydronaphthalen-1-yl)urea] | 1 to 10 nM
15 | CN1CCCN(C(=O)c2nc(NC(=O)N[C@H]3CC[C@@H](Oc4ccc5nnc(C(C)(C)C)n5c4)c4ccccc43)cc(C(C)(C)C)n2)CC1 [Example 133, 1-(6-(tert-butyl)-2-(4-methyl-1,4-diazepane-1-carbonyl)pyrimidin-4-yl)-3-((1S,4R)-4-((3-(tert-butyl)-[1,2,4]triazolo[4,3-a]pyridin-6-yl)oxy)-1,2,3,4-tetrahydronaphthalen-1-yl)urea] | 1 to 10 nM
16 | CN1CCN(Cc2nc(NC(=O)N[C@H]3CC[C@@H](Oc4ccc5nnc(C(C)(C)C)n5c4)c4ccccc43)cc(C(C)(C)C)n2)C(=O)C1 [Example 135, 1-(6-(tert-Butyl)-2-((4-methyl-2-oxopiperazin-1-yl)methyl)pyrimidin-4-yl)-3-((1S,4R)-4-((3-(tert-butyl)-[1,2,4]triazolo[4,3-a]pyridin-6-yl)oxy)-1,2,3,4-tetrahydronaphthalen-1-yl)urea formate salt] | 1 to 10 nM
17 | COC(C)(C)c1nnc2ccc(O[C@@H]3CC[C@H](NC(=O)Nc4cc(C(C)(C)C)nc(C(=O)NCC(C)(C)N(C)C)n4)c4ccccc43)cn12 [Example 141, 4-(tert-butyl)-N-(2-(dimethylamino)-2-mcthylpropyl)-6-(3-((1S,4R)-4-((3-(2-methoxypropan-2-yl)-[1,2,4]triazolo[4,3-a]pyridin-6-yl)oxy)-1,2,3,4-tetrahydronaphthalen-1-yl)ureido)pyrimidine-2-carboxamide] | 1 to 10 nM
18 | COC(C)(C)c1nnc2ccc(O[C@@H]3CC[C@H](NC(=O)Nc4cc(C(C)(C)C)nc(COCCN5CCOCC5)n4)c4ccccc43)cn12 [Example 144, 1-(6-(tert-butyl)-2-((2-morpholinoethoxy)-methyl)pyrimidin-4-yl)-3-((1S,4R)-4-((3-(2-methoxypropan-2-yl)-[1,2,4]triazolo[4,3-a]pyridin-6-yl)oxy)-1,2,3,4-tetrahydronaphthalen-1-yl)urea] | 1 to 10 nM
19 | CCC(CC)(CNC(=O)c1nc(NC(=O)N[C@H]2CC[C@@H](Oc3ccc4nnc(C(C)(C)COC)n4c3)c3ccccc32)cc(C(C)(C)C)n1)N(C)C [Example 147, 4-(tert-butyl)-N-(2-(dimethylamino)-2-ethylbutyl)-6-(3-((1S,4R)-4-((3-(1-methoxy-2-methylpropan-2-yl)-[1,2,4]triazolo[4,3-a]pyridin-6-yl)oxy)-1,2,3,4-tetrahydronaphthalen-1-yl)ureido)pyrimidine-2-carboxamide] | 1 to 10 nM
20 | CCN(C)C(C)(C)CNC(=O)c1nc(NC(=O)N[C@H]2CC[C@@H](Oc3ccc4nnc(C(C)(C)C)n4c3)c3ccccc32)cc(C(C)(C)C)n1 [Example 148, 4-(tert-butyl)-6-(3-((1S,4R)-4-((3-(tert-butyl)-[1,2,4]triazolo[4,3-a]pyridin-6-yl)oxy)-1,2,3,4-tetrahydronaphthalen-1-yl)ureido)-N-(2-(ethyl(methyl)amino)-2-methylpropyl)pyrimidine-2-carboxamide] | 1 to 10 nM
